Laboratory results from patent US20160031937A1, “NEURAL REGENERATION PEPTIDES AND USES THEREFOR” (CURONZ HOLDINGS COMPANY LIMITED, priority 2013, published 2016).
“Also recorded” adds a separate entry of the source. Square brackets hold non-standard residues; d marks the D form. Ends that are not written are not given here. βAla = NCCC(=O)O

Columns and labels:
human W9-hESCs = assay type: cell-based; details: 300 nM AMD3100, normoxic and OGD conditions
Method: Experiments with human embryonic stem cells (hESC) were carried out in accordance with the guidelines and regulations of the NHMRC and with the approval of the Austin Health Human Research Ethics Committee (Approval number H2008/03194), and University of Melbourne Human Research Ethics Committee (Approval number 0605017). H9 (WA-09, WiCell) cell lines were grown as previously described (Dottori & Pera, 2007).
Briefly, hESC were cultured on mitomycin-C treated mouse embryonic fibroblasts (MEFs) in hESC medium consisting of high-glucose Dulbecco's Modified Eagle Medium (DMEM) without sodium pyruvate, supplemented with 1% insulin/transferrin/selenium, 0.1 mM β-mercaptoethanol, 1% nonessential amino acids (NEAA), 2 mM glutamine, 25 U/ml penicillin, 25 μg/ml streptomycin (all from Invitrogen) and 20% fetal calf serum (FCS) (Hyclone).
Alternatively, hESC were cultured on mitomycin-C treated human foreskin fibroblasts (HFF; ATCC, CRL-2097) in KSR media consisting of DMEM/nutrient mixture F-12, supplemented with 0.1 mM […], 1% nonessential amino acids (NEAA), 2 mM glutamine, 25 U/ml penicillin, 25 μg/ml streptomycin and 20% knockout serum replacement (all from Invitrogen).
All cells were cultured at 37° C. in 5% CO2 with 100% humidity. Colonies were mechanically dissected every 7 days (subcultivated or passaged) and transferred to freshly prepared MEFs or HFFs. Media was changed every second day.
Neuronal differentiation was achieved using the noggin induction method described for mouse neurospheres as adapted by Dottori for human neurospheres (Dottori & Pera, 2007). The colonies were maintained at 37° C., with 5% CO2 in hESC medium supplemented with 500 ng/ml of Noggin for 14 days while replacing Noggin every other day.
At this point, the cells were washed with PBS and the colonies were again mechanically dissociated, but this time the central (differentiated) part of the colony was also cut into smaller pieces using a 26-gauge needle. The pieces were transferred to individual wells in a low adherent 96-well plate containing Neurobasal®A (NBM) (Invitrogen) supplemented with 1× X B-27® (Invitrogen) and 1× N-2 (Invitrogen) 20 ng/ml human recombinant EGF and 20 ng/ml human recombinant bFGF (Pharmacia). Media was changed every 2 to 3 days to allow neurosphere formation over 2 weeks.
In order to facilitate neuronal differentiation, neurospheres were again separated into smaller pieces under a dissection microscope, and three to four pieces were transferred to each well of a 96-well plate. Prior to this transfer, the plate was pre-coated with poly-D-lysine (10 μg/ml in PBS), washed in PBS, recoated with mouse laminin (5 μg/ml in PBS), and washed again. The cells were then grown for 11 days (with media changed every two days) in NBM lacking growth factors prior to induction of injury and assessment of hypothermia.
On the day of experiments, the medium was changed to NBM+N2 containing a B27 preparation lacking the usual antioxidants (Invitrogen; 10889-038) to eliminate their confounding effects (NBM-AO).
To maintain isoosmotic pressure conditions, 25 mM 2-deoxy-D-glucose was added to NBM-AO medium and equilibrated for 30 minutes at room temperature before the initial media change as described above. […] Culture supernatant was removed after this 4 hour period and stored at 4° C. until analysed for lactate dehydrogenase (LDH) activity.
The media was replaced with fresh NBM-AO and the cells were incubated for a further 20 hours containing drug, before again measuring LDH. Oxidative stress was induced by adding 50 μM fresh H2O2 (Sigma, H1009) to the growth factor negative NBM on initiation of the experiment with continued culture for 4 hours when LDH was measured and NBM-AO without H2O2 was returned to the culture which was maintained for a further 20 hours before again measuring LDH.

cerebellar granule cells = assay: Survival of cerebellar microexplants under glutamate and 3-NP toxicity; assay type: cell-based, Wistar rats; details: for block of NNZ-4921 neuronal survival-promoting activity: glutamate and 3-NP toxicity, 48 hours, eotaxin-3 10 and 100 nM, AMD3100 300 nM, co-administered with NNZ-4921
Method: Glass coverslips were obtained from New Zealand BioLabs, size 18 mm×18 mm. The coverslips were placed in a 150 mm Petri dish, at 8 cover slips per dish. Both sides of the coverslips were soaked and washed in absolute ethanol. The ethanol was discarded, and autoclaved MilliQ® was added to rinse both sides of coverslips. The water was then discarded, and the coverslips were air dried under the laminar flow.
Poly-D-lysine (PDL) was obtained from Sigma (P7280, lyophilized powder, γ-irradiated, average mol wt 30,000-70,000, cell culture tested). This was diluted with autoclaved PBS to make a stock solution of 1 mg/ml. The stock solution was divided into aliquots of 500 μl/tube and stored at −20° C.
For experiments, the stock solution of PDL was diluted with PBS 1:10 to make working solution of with a final concentration of 100 μg/ml. Approximately 100 μl of the PDL working solution was added to the coverslips and this was incubated at 34° C. for 2 hours (minimum) to overnight.
Next, more than 10 ml autoclaved MilliQ® was added into each Petri dish and the PDL-coated coverslips were rinsed. The coverslips were then transferred to 6 well culture plates. After air drying, the plates were wrapped in foil and stored at 4° C. until use. Storage was possible for up to 2 weeks.
Rat pups were used for this experiment (Wistar rats), either P3/4 or P7/8.
For extraction of P3/4 cerebellar cortices, 0.5 ml of ice-cold PBS/0.65% D(+)-glucose buffer was placed into a Petri dish and the tissue was placed into this solution. For extraction of P7/8 cerebellar cortices, 1.0 ml of ice-cold PBS/0.65% D(+)-glucose buffer was placed into a Petri dish and the tissue was placed into this solution.
The laminated cerebellar cortex was removed surgically and stored immediately in ice-cold PBS/0.65% D(+)-glucose buffer using the amounts as noted above. The cortex was then transferred to a Petri dish, and the meninges were removed from the cerebellar. The tissue was sliced by scissors, and passed once (P3/P4 pups) or twice (P7/P8 pups) through a 23-gauge sized needle attached to a 1 cc syringe to obtain uniformly sized microexplants. This was set aside in a Petri dish.
Next, the tissue was transferred into a 15 ml Falcon tube and centrifuged for 2 minutes at 350 rpm, at 4° C. The PBS/Glu(+) buffer was carefully discarded using a pipette. The pellet was resuspended in cold Neurobasal® medium (Invitrogen), at 1 ml per pup. This was centrifuged for 2 minutes at 350 rpm (60XG), at 4° C.
The medium was discarded and the pellet was resuspended in warm Neurobasal® medium, at 0.5 ml per P3/4 pup and 1.5 ml per P7/8 pup. This was then seeded on PDL-coated cover slips in 6 well plates at a volume of 40-45 μl per coverslip.
The coverslips were incubated at 34° C., in 5% CO2, with 100% humidity for 45 minutes to 1.5 hours to allow adherence. Then, 1 ml of Neurobasal® medium was added per well and the microexplants were checked under a microscope for adherence.
The toxins 3-nitropropionic acid and glutamate were prepared at 100× concentrations. For 50 mM 3-nitropropionic acid (Sigma), the stock solution was titrated with NaOH to a pH value of 7-7.2. For 50 mM L-glutamate, this was dissolved under heat (hot water).
As a negative control, 10 μl of 3-nitropropionic acid and 10 μl of glutamate was administered (4 wells). As a positive control, 20 μl of PBS was administered to normoxic microexplants without any toxins (4 wells). […]

[1] = molecular target: T1, homodimeric CXCR4 receptor (Homo sapiens, UniProt P61073); assay: 125I-SDF-1 displacement binding study (CEREP); details: recombinant homodimeric CXCR4 expressing HEK293 cells; unlabelled peptide in competition
T1 construct: host or cells: HEK293
Method: This was determined by radioactive ^125I-SDF-1 displacement studies using CXCR4 homodimeric receptors and unlabelled NNZ-4921 and NRP2945 in competition.

neuronal stem cells = details: cited from earlier work
[2] = molecular target: T2, homodimeric CXCR4 receptor (recombinant, expressed in HEK293 cells) (UniProt P61073 1-352, limits assumed); assay: 125I-SDF-1 displacement on HEK293 cells expressing recombinant homodimeric CXCR4 (CEREP)
T2 construct: whole, on cells; also called CXCR4 homodimeric receptors; homodimeric CXCR4 receptor complex
T2 sequence (P61073 whole entry): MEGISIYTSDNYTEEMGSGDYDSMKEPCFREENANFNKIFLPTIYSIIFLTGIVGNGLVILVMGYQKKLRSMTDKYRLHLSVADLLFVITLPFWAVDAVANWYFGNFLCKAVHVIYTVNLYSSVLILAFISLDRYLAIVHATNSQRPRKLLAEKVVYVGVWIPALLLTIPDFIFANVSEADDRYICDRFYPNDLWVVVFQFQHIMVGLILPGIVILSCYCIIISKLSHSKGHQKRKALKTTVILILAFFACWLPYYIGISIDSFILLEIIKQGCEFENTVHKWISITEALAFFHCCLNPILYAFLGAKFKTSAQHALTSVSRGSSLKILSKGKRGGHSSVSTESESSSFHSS

T1 sequence (P61073 whole entry): as above

c1cc(CN2CCCNCCNCCCNCC2)ccc1CN1CCCNCCNCCCNCC1 [AMD3100, reference compound]
toxicity on W9-hESCs (human W9-hESCs): did not show any toxicity
block of NNZ-4921 neuronal survival-promoting activity (cerebellar granule cells): completely block

GRRAAPGR-β-Ala-GG (GRRAAPGR[βAla]GG) [NRP2983, synthetic 11-mer peptidomimetic closely related to NRP2945]
promotion of survival of cultivated cerebellar cells (cerebellar granule cells; 1fM NRP2983, oxidatively stressed cerebellar microexplants): 70%

GRRAAPGRAGG [NNZ-4921]
activity of NNZ-4921 in reducing cell death in presence of eotaxin-3 in combination with AMD3100 (cerebellar granule cells; 10 fM or 100 fM NNZ-4921): completely blocked
displacement of 125I-SDF-1 from homodimeric CXCR4 receptor [1]: not able to displace the radioactive ligand SDF-1

SDF-1: natural ligand for the CXCR4 receptor
EC50 values for chemoattraction (neuronal stem cells; SDF-1): lower nanomolar range
minimal concentration required to chemoattract neuronal stem cells (neuronal stem cells; Xu and Heilshorn, 2012): 9 nM

eotaxin-3: human recombinant eotaxin-3 (Pharmaco), ligand of the CCR3 receptor, partial agonist
block of NNZ-4921 neuronal survival-promoting activity (cerebellar granule cells): abrogation of the neuroprotective effect; also recorded: completely blocked
effect of eotaxin-3 alone on neuronal survival (cerebellar granule cells; without NNZ-4921, normoxic or oxidative/excitotoxic stress conditions): no toxic effect; also recorded: no effect on the overall neuronal survival rate

B1: NNZ-4921 (peptide)
peptide: GRRAAPGRAGG
binding result [2]: no binding
